# Laboratory results published in patent US20110034407A1, “USE OF SPHINGOMYELIN AND NON-DIGESTIBLE CARBOHYDRATES FOR IMPROVING INTESTINAL MICROBIOTA” (N. V. Nutricia, priority 2007, published 2011).
# How the values were obtained:
# [1] = test system: Eubacterium rectale and Clostridium coccoides group; test: Faecal fermentation in dialysis tubes, FISH with Erec482 probe; format: cell-based; conditions: t = 72 h versus t = 0
# Experimental: (§1) Pooled fresh faeces obtained from 4-5 healthy adults was used to perform fermentation studies as described in Appendix I of WO 2004/000340. The experiments were performed in duplo. The faeces, diluted 1:5 into McBain and Farlane medium, was put into dialysis tubes and suspended in bottles with buffer under anaerobic conditions and was first incubated at 37° C. for 16 h for reasons of adaptation before inoculating them with the substrates according to the table below at t=0.
# (§2) The test substrates were added once a day (at t=0, 24, and 48 hours). Buffer was refreshed once a day. A sample was taken at t=0 and t=72. This relatively long period was used since shifts in bacterial populations are relatively slow compared to the shifts in short chain acids formed.
# (§3) The sphingosine was dissolved in ethanol (stock 10 mg/ml). 30 μl of a stock of 10 mg/ml was added to the dialysis tube.
# (§4) The samples were analysed by Fluorescence In Situ Hybridisation (FISH) as described in Franks, A. H., et al., Appl. Environ. Microbiol., 1998. 64(9): p. […] Total number of bacteria was determined by DAPI staining. The ratio Firmicutes/Bacteroidetes was set at the percentage of bacteria detected by the Chis150, Clit135, Erec482 and Lab158 probe, divided by the percentage of bacteria […] by the Bac303 probe. The bacteria detected by the Erec482 group are usually the largest group of Firmicutes in the human intestine.
# Bifidobacteria = test: Faecal fermentation in dialysis tubes, FISH with Bifl 64 probe; format: cell-based; conditions: t = 72 h versus t = 0
# Experimental: as §1, §2, §3, §4
structure (smiles),measurement,setting,value
"CCCCCCCCCCCCC/C=C/[C@@H](O)[C@@H](N)CO [Number 1, D-sphingosine]","change in Clostridia and Eubacteria, largest group of intestinal Firmicutes (in words)",[1],decrease
same,change in bifidobacteria (in words),Bifidobacteria,increase
